One data set concerns MCF-7 (breast cancer). Put plainly: MTT cell viability assay, MCF-7. Format: cell-based, human. Particulars: for IC50: Homo sapiens, MCF7, 72 h, MTT assay, 72 h of incubation; for Selectivity Index (SI) MCF-7: IC50 value toward HaCaT cells/IC50 value toward MCF-7. The essentials: (§1)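 Cells in DMEM with 10% FBS, 3 × 10^3 per well, exposed to compounds at 1–100 µM for 72 h at 37 °C. MTT at 0.5 mg/mL for 2 h, formazan dissolved in DMSO and read at 550 nm. Mean ± SD of at least three independent experiments, each in triplicate.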

Data set [1] deals with HaCaT (human keratinocyte cell line). Put plainly: MTT cell viability assay, non-cancerous HaCaT. Format: cell-based. Particulars: Homo sapiens, HaCaT, 72 h, 72 h of incubation, non-cancerous keratinocytes. The essentials:
as §1

For the next data set, the system named is HeLa (cervical cancer). Put plainly: MTT cell viability assay, HeLa. The data set is classed as cell-based, human. Particulars: for IC50: Homo sapiens, HeLa, MTT assay, 72 h of incubation; for Selectivity Index (SI) HeLa: IC50 value toward HaCaT cells/IC50 value toward HeLa. The essentials: (§2)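 HCT-116 and HeLa cells in DMEM/10% FBS exposed 72 h to compounds over 1–100 µM. Viability by MTT (0.5 mg/mL, 2 h, 37 °C), formazan dissolved in DMSO and read at 550 nm; mean ± SD of at least three independent experiments.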

Data set [2] deals with MCF7 (breast cancer cell line, ATCC, HTB-22). As to the kind of experiment: MTT assay, wild-type p53 breast cancer cells MCF-7 (Table 11). Format: cell-based, human. Particulars: Homo sapiens, MCF7; 72 h of incubation, wild-type p53, second determination. As for the experimental part: (§3) Thus, the ability of the selected compounds to exert cytotoxic activity toward cell lines harboring mutant p53 was examined. Compounds displaying a high selectivity index (Table 6) were selected for the analysis of their activity toward ovarian and breast cancer cells with wild-type p53 (A2780, MCF-7) and mutant p53 (SKOV-3, T47D).
(§4) Cell viability was examined using the MTT [3-(4,5-dimethylthiazol-2-yl)-2,5-diphenyltetrazolium bromide] assay. Cells were seeded in 96-well plates at a density of 3 × 10^3 cells/well and treated for 72 h with the tested compounds in the concentration range of 1–100 µM. Then, MTT (0.5 mg/mL) was added to the medium and cells were further incubated for 2 h at 37 °C. In the next stage, cells were lysed with DMSO and the absorbance of the formazan solution was measured at 550 nm with a plate reader (1420 multilabel counter, Victor, Jügesheim, Germany). The experiment was performed in triplicate. Values are expressed as the mean ± SD of at least three independent experiments. Cisplatin was used as a positive control.
(§5) Compounds 48, 62, 134, 138 and 140 were further examined toward MCF7 (breast cancer cell line, ATCC, HTB-22), T47D (breast cancer cell line, DSMZ ACC 739), A2780 (ovarian carcinoma cell line, ECACC, 93112519), and SKOV3 (ovarian carcinoma cell line, ATCC, HTB-77) cells. Cells were grown in Dulbecco’s Modified Eagle Medium (DMEM) supplemented with 10% fetal bovine serum (Thermo Fisher Scientific).

A further data set deals with MDM2-p53 interactions. Put plainly: Western blot of MDM2 and p53 protein levels in MCF-7 cells. The data set is classed as cell-based, human. To be noted: 4 µM and 10 µM, 24-h incubation. As to the method:
Thus, the effects of the examined compounds on the inhibition of MDM2-p53 interactions were examined. MDM2 and p53 protein levels were determined with Western blot analysis after the treatment of MCF-7 cells with compounds selected for their high selectivity index (48, 62, 134, 138, and 140). Compounds were examined at different concentrations (4 µM and 10 µM) following a 24-h incubation (Figure 7).
Proteins were transferred to an Immobilon-P PVDF membrane (Merck Millipore, Burlington, MA, USA). The membranes were incubated for 1 h using 5% low-fat milk solution in 1× TBS (50 mM Tris-Cl, pH 7.5, 150 mM NaCl) as a blocking buffer and then overnight at 4 °C in the same blocking solution containing one of the following antibodies: anti-MDM2 (rabbit, Sigma-Aldrich AB-166, Burlington, MA, USA), anti-p53 (rabbit, Sigma-Aldrich S15) or α-tubulin (rabbit, 11H10, Cell Signaling, Danvers, MA, USA). After washing (3 × 10 min in TBS), membranes were incubated for 2 h in room temperature with the adequate HRP-conjugated secondary antibody: goat anti-rabbit IgG (1:5000, Abcam, Cambridge, UK; cat. 97051). Membranes were developed using an HRP detection kit WesternBright Quantum (Advansta, San Jose, CA, USA; cat. K-12042).

A further data set deals with HCT-116 (colon cancer). Put plainly: MTT cell viability assay, HCT-116. To be noted: for IC50: Homo sapiens, HCT-116, 72 h, MTT assay, 72 h of incubation; for Selectivity Index (SI) HCT-116: IC50 value toward HaCaT cells/IC50 value toward HCT-116. Format: cell-based, human. The essentials:
as §2

Data set [3] has as its system SKOV3 (ovarian carcinoma cell line). As to the kind of experiment: MTT assay, mutant p53 ovarian cancer cells SKOV-3. Format: cell-based. To be noted: Homo sapiens, SK-OV-3, 72 h of incubation. As to the method:
as §3, §4, §5

Data set [4] concerns A2780 (ovarian carcinoma cell line). As to the kind of experiment: MTT assay, wild-type p53 ovarian cancer cells A2780. Format: cell-based. To be noted: Homo sapiens, A2780, 72 h of incubation. As to the method:
as §3, §4, §5

The test system of data set [5] is T47D (breast cancer cell line). As to the kind of experiment: MTT assay, mutant p53 breast cancer cells T47D. The data set is classed as cell-based. Particulars: Homo sapiens, T47D, 72 h of incubation. As to the method: as §3, §4, §5
In another data set the test system is HCT-116, MCF-7 and HeLa. Put plainly: MTT cytotoxicity, summary statements on all tested tumor cell lines together. Format: cell-based, human. Particulars: MTT 72 h. As to the method:
Compounds 20–162 were evaluated in vitro for their effects on the viability of three cancer cell lines: HCT-116 (colon cancer), MCF-7 (breast cancer) and HeLa (cervical cancer), as well as the non-cancerous keratinocyte cell line (HaCaT). […] Analysis was performed using an MTT assay after 72 h of incubation.
as §4

Structures are written as SMILES.

As to `Cc1cc(S(=O)(=O)N=C2NCCN2Cc2ccccc2)c(SCc2nc(N)nc(N3CCN(c4ccc(Cl)cc4)CC3)n2)cc1Cl` [Compound 62], the half-maximal inhibitory concentration (IC50) with MCF-7 (breast cancer) came out at 7 ± 0.1 µM; in data set [1], 32 ± 1 µM; in the data set on HeLa (cervical cancer), 107 ± 1 µM; in [2] it was 10.4 ± 0.1 µM; in the data set with HCT-116 (colon cancer), 6 ± 0.1 µM; in data set [3] it was 10.1 ± 0.1 µM. In addition, the IC50 in [4] came to 3.9 ± 0.1 µM; in [5] it was 4.9 ± 0.1 µM. In addition, in the data set on MCF-7 (breast cancer), the “Selectivity Index (SI) MCF-7” value is 4.5. Also, in the data set with HeLa (cervical cancer), the “Selectivity Index (SI) HeLa” value is 0.3. Moreover, the “MDM2 and p53 protein levels” value with MDM2-p53 interactions was “no changes”. For the same compound, the “Selectivity Index (SI) HCT-116” value in the data set with HCT-116 (colon cancer) stood at 5.3.
As to `Cc1ccc(S(=O)(=O)N2CCN(c3nc(N)nc(CSc4cc(Cl)c(C)cc4S(=O)(=O)N=C4NCCN4Cc4ccccc4)n3)CC2)cc1` [Compound 71], the IC50 was 205 ± 4 µM in the data set with MCF-7 (breast cancer), 27 ± 1 µM in data set [1], 265 ± 8 µM in the data set on HeLa (cervical cancer) and 155 ± 6 µM in the data set with HCT-116 (colon cancer). The “cytotoxic activity for all tested cell lines (in words)” value in the data set on HCT-116, MCF-7 and HeLa was “loss of activity”.
Turning to `Cc1cc(S(=O)(=O)N=C2NCCN2Cc2ccc(C(F)(F)F)cc2)c(SCc2nc(N)nc(N3CCN(c4ccc(Cl)c(Cl)c4)CC3)n2)cc1Cl` [Compound 138], the 50% inhibitory concentration (IC50) in the data set with MCF-7 (breast cancer) was determined as 9 ± 0.5 µM; in data set [1], 22 ± 1 µM; with HeLa (cervical cancer), 9 ± 0.6 µM; in data set [2], 8.2 ± 0.1 µM; with HCT-116 (colon cancer) it was 6 ± 0.2 µM; in [3], 5.8 ± 0.1 µM. The IC50 in data set [4] is 2.2 ± 0.1 µM; in [5] it was 4.4 ± 0.1 µM. Moreover, in the data set with MDM2-p53 interactions, the “MDM2 and p53 protein levels” value is “no changes”.
Consider `Cc1cc(S(=O)(=O)N=C2NCCN2Cc2ccc(C(F)(F)F)cc2)c(SCc2nc(N)nc(N3CCN(c4ccc(C(F)(F)F)cc4)CC3)n2)cc1Cl` [Compound 134], for which the IC50 in the data set with MCF-7 (breast cancer) was found to be 11 ± 0.1 µM; in data set [1] it was 22 ± 1 µM; with HeLa (cervical cancer), 10 ± 0.6 µM; in data set [2], 7.8 ± 0.1 µM; in the data set on HCT-116 (colon cancer) it was 5 ± 0.2 µM; in data set [3], 5.7 ± 0.1 µM. Moreover, the half-maximal inhibitory concentration (IC50) in data set [4] turned out to be 3.9 ± 0.1 µM; in data set [5] it was 3.2 ± 0.1 µM. In addition, the “Selectivity Index (SI) MCF-7” value in the data set on MCF-7 (breast cancer) is listed as 2.0. The “Selectivity Index (SI) HeLa” value in the data set on HeLa (cervical cancer) turned out to be 2.2. Further, in the data set with MDM2-p53 interactions, the “MDM2 and p53 protein levels” value is reported as “no changes”. The “Selectivity Index (SI) HCT-116” value in the data set with HCT-116 (colon cancer) is given as 4.4.

The record behind these values is publication PMC9267128, “New 2-[(4-Amino-6-N-substituted-1,3,5-triazin-2-yl)methylthio]-N-(imidazolidin-2-ylidene)-4-chloro-5-methylbenzenesulfonamide Derivatives, Design, Synthesis and Anticancer Evaluation” (International Journal of Molecular Sciences, 2022).
